PMC6661729, “In silico design and synthesis of hesperitin derivatives as new xanthine oxidase inhibitors” (BMC Chemistry, 2019)

Tests used:
[1] = target: T1, human xanthine oxidase (Homo sapiens, UniProt P47989); test: In vitro xanthine oxidase inhibitory activity (XO activity assay kit, H2O2 read at 570 nm); assay type: biochemical; conditions: 25 °C, xanthine substrate, allopurinol positive control; read-out: IC50 xanthine oxidase inhibition
T1 construct: purchased Sigma (sigma-aldrich.co, USA) MAK078
Procedure: For this research, the analytical grade chemicals necessary for synthesis and antioxidant activity were purchased from Hi-media Laboratories. The in vitro evaluation of the human xanthine oxidase inhibitory activity was performed by measuring hydrogen peroxide (H2O2) production from oxidation of […], utilizing the human xanthine oxidase assay kit (Sigma USA). The progress of reaction was observed through thin layer chromatography (TLC) on 0.25 mm precoated silica gel plates purchased from Merck, reaction spots were envisaged in iodine compartment and UV. Melting points were measured using a Sonar melting point apparatus and uncorrected. ^1H NMR and ^13C NMR spectra were documented in DMSO and deuterated CDCl3 respectively on Bruker Avance II 400 NMR spectrometer at the frequency of 400 MHz using tetramethylsilane standard (downfield) moreover chemical shifts were expressed in ppm (δ) using the residual solvent line as internal standard. Infrared (IR) spectra were recorded on Perkin Elmer FTIR spectrophotometer by utilizing KBr pellets system.
The method opted to evaluate the inhibitory potential of hesperitin derivatives was a modified protocol of Sigma, done by UV-spectrophotometric method by using xanthine oxidase activity assay kit purchased from sigma (MAK078, sigma-aldrich.co, USA). The colorimetric product obtained in the form of hydrogen peroxide generated during the oxidation of XO was determined by a coupled enzyme technique, measured at 570 nm in a 96-well plate, using the plate reader EPOCH™ “MICROPLATE READER (BIOTEK)”. One unit of XO is defined as the amount of enzyme that catalyzes the oxidation of xanthine substrate, yielding 1.0 µmol of uric acid and hydrogen peroxide per minute at 25 °C. Reagents used were 44 µL of xanthine oxidase assay buffer, 2 µL xanthine substrate solution and 2 µL of xanthine oxidase enzyme solution. All the solutions mentioned above were mixed to prepare reaction mixture. The different concentrations of synthesized derivatives having final volume 50 µL were prepared in dimethyl sulfoxide (DMSO) and added to 96 well plate. To each well 50 µL of reaction mix was added and mixed well. After 2–3 min initial measurement was taken. The plates were incubated at 25 °C taking measurements at every 5 min.

[2] = Antioxidant activity by DPPH method; conditions: methanol, 37 °C, 517 nm; ascorbic acid positive control; read-out: IC50 ± SEM (DPPH assay)
Procedure: The antioxidant potential of hesperitin derivatives was performed by DPPH method evaluated in the form of IC50 estimated using the ELISA plate reader EPOCH™ “MICROPLATE READER (BIOTEK)”. This method opted for evaluation of free radical scavenging activity of DPPH was base on modified procedure described by Dhiman et al.. The tested compounds were prepared in methanolic solution and reacted with methanolic solution of DPPH at 37 °C. The reaction mixture was prepared in 96-well plate by adding 50 µL of sample, 50 µL […] of methanol and 50 µL of DPPH solution prepared in 0.1 mM in methanol. The mechanism of action of DPPH assay was based on the fact that DPPH radical get reduced during its reaction with an antioxidant compound and results in changes of color (from deep violet to light yellow). The absorbance was read at 517 nm for 30 min at an interval of 5 min of using ELISA microplate reader. The mixture of methanol (5.0 mL) and tested compounds (0.2 mL) serve as blank. Ascorbic acid served as positive control.

[3] = Hydrogen peroxide scavenging (H2O2) assay; conditions: phosphate buffer pH 7.4, 230 nm, 10 min; L-ascorbic acid standard; read-out: IC50 ± SEM (hydrogen peroxide assay)
Procedure: To compare and best evaluate the antioxidant potential of newly synthesized hesperitin derivatives, hydrogen peroxide assay was performed by the method described by Patel et al. with some modifications. The solution of H2O2 (100 mM) was prepared via the adding up different concentrations of synthesized derivatives ranging from 5 to 80 μg/mL to H2O2 solution (2 mL), prepared in 20 mM phosphate buffer of pH 7.4. Finally, the absorbance of H2O2 was measured at 230 nm after incubating for 10 min next to a blank reading of phosphate buffer without H2O2. For every measurement, a fresh reading of blank was taken to carry out background correction. For control sample containing H2O2 was scanned for absorbance at 230 nm. Results calculated as percentage of hydrogen peroxide inhibition was estimated by the formula [(Ab − At)/[…]] × 100, where Ab is the absorbance of the control and At is the absorbance of compounds/standard taken as L-ascorbic acid (5–80 μg/mL) are shown in Table 3.

[4] = tested on: xanthine oxidase; test: Enzyme kinetic analysis for XO-inhibitory activity (Michaelis-Menten, Lineweaver-Burk); assay type: biochemical, human; conditions: without inhibitor 117.6
Procedure: Firstly Michaelis–Menten curve was plotted for the enzyme activity at different concentrations of HET4 against different concentration of xanthine substrate (Fig. 6).
Then double reciprocal plot (Lineweaver–Burk) analysis was done in the presence (0.25, 0.5, and 1.0 µM) and absence of HET4 from in vitro data generated during the oxidation of xanthine in presence of xanthine oxidase (Fig. 7). The x- and y-axis intercepts of the Lineweaver–Burk plot were utilized to calculate Km and Vmax values of HET4 at different concentrations (Table 2).

T1 sequence (P47989 whole entry): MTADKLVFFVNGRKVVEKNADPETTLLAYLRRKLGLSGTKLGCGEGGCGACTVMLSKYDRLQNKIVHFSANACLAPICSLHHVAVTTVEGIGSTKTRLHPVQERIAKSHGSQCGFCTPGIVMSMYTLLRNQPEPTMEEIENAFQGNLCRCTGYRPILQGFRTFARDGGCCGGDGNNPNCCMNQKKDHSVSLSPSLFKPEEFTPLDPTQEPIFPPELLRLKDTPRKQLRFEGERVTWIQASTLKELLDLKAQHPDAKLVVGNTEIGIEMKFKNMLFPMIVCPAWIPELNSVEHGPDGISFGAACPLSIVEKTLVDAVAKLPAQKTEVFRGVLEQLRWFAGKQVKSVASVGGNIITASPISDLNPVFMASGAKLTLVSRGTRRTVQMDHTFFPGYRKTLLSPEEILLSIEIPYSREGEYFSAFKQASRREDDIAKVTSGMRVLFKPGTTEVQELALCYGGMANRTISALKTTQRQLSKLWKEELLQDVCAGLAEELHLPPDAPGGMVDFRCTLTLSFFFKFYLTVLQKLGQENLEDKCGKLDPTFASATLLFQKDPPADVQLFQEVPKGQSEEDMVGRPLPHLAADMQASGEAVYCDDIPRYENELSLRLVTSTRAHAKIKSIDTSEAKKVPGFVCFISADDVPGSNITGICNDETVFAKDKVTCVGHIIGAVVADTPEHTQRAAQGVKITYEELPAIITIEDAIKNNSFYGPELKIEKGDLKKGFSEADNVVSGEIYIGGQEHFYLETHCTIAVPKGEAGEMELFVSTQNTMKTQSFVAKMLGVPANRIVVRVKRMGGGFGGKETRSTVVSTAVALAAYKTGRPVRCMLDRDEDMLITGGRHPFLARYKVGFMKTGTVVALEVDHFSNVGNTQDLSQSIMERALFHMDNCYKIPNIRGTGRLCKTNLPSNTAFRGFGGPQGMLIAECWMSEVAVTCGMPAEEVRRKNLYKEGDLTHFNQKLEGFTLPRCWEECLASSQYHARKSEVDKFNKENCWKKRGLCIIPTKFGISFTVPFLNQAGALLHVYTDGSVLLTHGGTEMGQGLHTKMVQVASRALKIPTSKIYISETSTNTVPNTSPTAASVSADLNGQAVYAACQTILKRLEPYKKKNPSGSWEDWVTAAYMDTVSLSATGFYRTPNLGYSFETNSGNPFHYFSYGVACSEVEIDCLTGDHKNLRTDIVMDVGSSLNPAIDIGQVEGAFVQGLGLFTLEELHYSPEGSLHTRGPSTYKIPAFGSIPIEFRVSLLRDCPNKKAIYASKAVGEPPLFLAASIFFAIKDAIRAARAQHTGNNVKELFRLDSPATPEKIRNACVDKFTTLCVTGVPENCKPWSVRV
Sequence of xanthine oxidase (P47989 whole entry): as above

Compound	IC50 [1] [µM]	IC50 [2] [µM]	IC50 [3] [µM]	Vmax of xanthine oxidase ([4]; Conc. of HET4 0.25 µM) [µmol/min]	Vmax of xanthine oxidase ([4]; Conc. of HET4 0.5 µM) [µmol/min]	Vmax of xanthine oxidase ([4]; Conc. of HET4 1.0 µM) [µmol/min]
COc1cc(C(=O)Oc2cc(OC)c3c(c2)O[C@H](c2ccc(OC)c(OC)c2)CC3=O)ccc1O [HET6]	11.7	7.11 ± 0.13	7.51 ± 0.02			
COc1ccc([C@@H]2CC(=O)c3c(OC)cc(OC(=O)C(O)c4ccccc4)cc3O2)cc1OC (some centres unmarked) [HET3]	12.9 ± 0.72		3.322 ± 0.01			
COc1ccc([C@@H]2CC(=O)c3c(OC)cc(OC(=O)c4cccnc4)cc3O2)cc1OC [HET5]	10.8	4.82 ± 0.06	6.37 ± 0.26			
COc1ccc([C@@H]2CC(=O)c3c(OC)cc(OC(=O)c4ccccc4S)cc3O2)cc1OC [HET2]	23.2 ± 1.25	6.71 ± 0.15	8.547 ± 0.06			
COc1ccc([C@@H]2CC(=O)c3c(O)cc(O)cc3O2)cc1O [Hesperitin]	29.25 ± 0.12	12.9 ± 0.2	14.43 ± 0.14			
COc1ccc([C@@H]2CC(=O)c3c(OC)cc(OC(=O)/C=C/c4ccc(O)c(O)c4)cc3O2)cc1OC [HET4]	9.09	1.633 ± 0.01	4.642 ± 0.03	116.4	112.2	103.7
